SMILES strings stand for the structures.

This series is described as follows: Accelerated and long-term stability tests of Crystalline Form I. Format: physicochemical. To be noted: for Purity: HPLC. The method, then:
X-ray powder diffraction (XRPD) patterns were obtained on a Shimadzu XRD-6000. A CuK source (=1.54056 angstrom) operating minimally at 40 kV and 30 mA scans each sample between 5 and 50 degrees 2-theta. The step size is 0.02 degrees 2-theta and the scan speed is 1 second per step.
Differential scanning calorimetry analysis was carried out on a TA Instrument DSC unit (METTLER DSC 3). Samples were heated in non-hermetic aluminum pans from ambient to 300° C. at 20 K/min with a nitrogen purge of 50 mL/min.
High-performance liquid chromatography (HPLC) was performed using the following instrument and/or conditions.
Example 8. Stability Tests of Crystalline Form I
Crystalline Form I was not changed after storage at 40° C./75% RH for 6 months, or storage at 25° C./60% RH for 6 months.

Setting [1] is: 25° C./60% RH (closed), 0 month.
The mark [2] stands for this setting: 25° C./60% RH (closed), 6 months.
[3] abbreviates: 40° C./75% RH (closed), 0 month.
Where [4] appears, read: 40° C./75% RH (closed), 6 months.

As to `CCCS(=O)(=O)Nc1cc(F)c(F)c(C(=O)c2ccc3ncc(N4CCOCC4)nc3c2)c1F` [Crystalline Form I, N-(2,4,5-trifluoro-3-(3-morpholinoquinoxaline-6-carbonyl)phenyl)propane-1-sulfonamide], the Appearance entry under setting [1] is listed as “Yellow powder”, the Appearance result under setting [2] is “Yellow powder”, the Appearance entry under setting [3] was “Yellow powder” and the Appearance result under setting [4] is listed as “Yellow powder”. In addition, the DSC is, setting by setting: under setting [1], 186.56 °C; under setting [2], 186.08 °C; under setting [3], 186.56 °C; under setting [4], 186.54 °C. In addition, the XRPD result is, setting by setting: under setting [1], “Form I”; under setting [2], “Form I”; under setting [3], “Form I”; under setting [4], “Form I”. For the same compound, the Purity was found to be 99.93% under setting [1], 99.92% under setting [2], 99.93% under setting [3] and 99.92% under setting [4]. Besides, the “Change of crystalline form after storage” value by setting is: (storage at 25° C./60% RH for 6 months) “not changed”; (storage at 40° C./75% RH for 6 months) “not changed”.

Values taken from patent US20240116880A1, “CERTAIN CHEMICAL ENTITIES, COMPOSITIONS, AND METHODS” (NeuPharma, Inc, priority 2020, published 2024).
